Test results from patent US20250368648A1, “MULTI-CYCLIC IRAK AND FLT3 INHIBITING COMPOUNDS AND USES THEREOF” (CHILDREN'S HOSPITAL MEDICAL CENTER, priority 2022, published 2025).
“Also recorded” adds a separate entry of the source. Read-outs that look alike come from different tables or passages of the source.

How the values were obtained:
[1] = system: MOLM14-FLT3-ITD (D835Y) AML cells; assay: Caspase-Glo 3/7 apoptosis assay, time course; assay type: cell-based
IRAK1 = target: T1, IRAK1 (Homo sapiens, UniProt P51617); assay: RBC HotSpot Kinase Assay, IRAK1; assay type: biochemical; details: HotSpot functional assay, isolated kinase enzyme, 33P-ATP
T1 construct: purchased RBC (Reaction Biology) HotSpot assay
T1 sequence (P51617 whole entry): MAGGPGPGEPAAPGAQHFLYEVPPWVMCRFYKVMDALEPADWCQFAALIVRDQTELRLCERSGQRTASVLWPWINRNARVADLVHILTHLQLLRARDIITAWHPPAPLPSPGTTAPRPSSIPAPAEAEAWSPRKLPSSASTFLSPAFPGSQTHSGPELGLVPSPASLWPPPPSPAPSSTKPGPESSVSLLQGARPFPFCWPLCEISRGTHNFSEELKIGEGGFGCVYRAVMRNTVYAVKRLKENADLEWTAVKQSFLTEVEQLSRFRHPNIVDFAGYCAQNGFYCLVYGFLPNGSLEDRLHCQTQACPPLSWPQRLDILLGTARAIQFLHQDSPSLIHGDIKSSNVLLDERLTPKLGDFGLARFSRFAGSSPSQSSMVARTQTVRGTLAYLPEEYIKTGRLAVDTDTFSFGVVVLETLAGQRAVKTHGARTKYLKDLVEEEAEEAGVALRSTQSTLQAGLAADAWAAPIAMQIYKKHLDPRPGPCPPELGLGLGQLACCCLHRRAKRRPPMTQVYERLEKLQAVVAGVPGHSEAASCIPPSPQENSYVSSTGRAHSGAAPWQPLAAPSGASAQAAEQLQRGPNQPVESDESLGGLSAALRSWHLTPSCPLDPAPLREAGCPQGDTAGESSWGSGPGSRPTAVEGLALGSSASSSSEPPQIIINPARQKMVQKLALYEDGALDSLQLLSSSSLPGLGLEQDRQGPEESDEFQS
Summary of the method: (§1)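 Isolated kinases, possibly truncated or lacking regulatory receptor regions, were preincubated with compound for 20 min at room temp in 20 mM Hepes pH 7.5, 10 mM MgCl2, 1 mM EGTA, 2 mM DTT, 1% DMSO. Reactions were started with ^33P-ATP and run 2 h at room temperature; activity was read by P81 filter binding.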

NF-κB = assay: NF-kB assay in THP-1-Blue NF-κB cells (SEAP reporter); assay type: cell-based
Protocol: THP-1-Blue NF-κB cells (InvivoGen) carrying a stable integrated NF-κB-inducible secreted embryonic alkaline phosphatase (SEAP) reporter construct were plated at a concentration of 1×10^5 cells per well. The cells were stimulated with Pam3CSK4 (1 ng/mL) or hIL1B (Ing/mL). After 10-20 minutes, the cells were then treated with vehicle (DMSO) or serial dilutions of the test compounds (10 doses tested for each test compound, with a 1:10 dilution series starting at 1 μM or 3 μM) with a final volume of 200 μL for 24 hours at 37° C. After 24 hours, the cells were centrifuged and 20 IL supernatant was incubated with 180 μL QUANTI-Blue reagent at 37° C. for 30-60 minutes. The levels of NF-κB-induced was measured in a microplate reader at 620 nm.

MOLM14 D835Y cells = assay: MOLM14 D835Y cell viability assay (Cell Titer Glo); assay type: cell-based; details: Homo sapiens, MOLM-14, 48 h
IRAK4 = target: T2, IRAK4 (Homo sapiens, UniProt Q9NWZ3); assay: RBC HotSpot Kinase Assay, IRAK4; assay type: biochemical; design: purchased RBC (Reaction Biology) HotSpot assay; details: HotSpot functional assay, isolated kinase enzyme, 33P-ATP
T2 sequence (Q9NWZ3 1-460): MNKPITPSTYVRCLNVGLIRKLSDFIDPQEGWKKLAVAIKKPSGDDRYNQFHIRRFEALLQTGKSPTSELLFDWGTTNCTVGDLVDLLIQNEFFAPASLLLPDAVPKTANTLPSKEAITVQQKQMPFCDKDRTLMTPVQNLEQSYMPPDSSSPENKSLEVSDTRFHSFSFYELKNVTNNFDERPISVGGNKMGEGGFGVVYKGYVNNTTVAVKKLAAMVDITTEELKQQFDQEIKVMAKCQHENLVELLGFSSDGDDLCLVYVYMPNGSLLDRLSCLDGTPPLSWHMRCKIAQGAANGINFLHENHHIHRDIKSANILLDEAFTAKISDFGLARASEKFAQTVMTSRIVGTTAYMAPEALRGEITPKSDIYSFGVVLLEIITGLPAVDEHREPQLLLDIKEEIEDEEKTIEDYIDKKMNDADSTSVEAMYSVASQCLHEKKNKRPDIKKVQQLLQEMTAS
Summary of the method: as §1

FLT3 = target: T3, FLT3 (Homo sapiens, UniProt P36888); assay: RBC HotSpot Kinase Assay, FLT3; assay type: biochemical; design: purchased RBC (Reaction Biology) HotSpot assay; details: HotSpot functional assay, isolated kinase enzyme, 33P-ATP
T3 sequence (P36888 27-993): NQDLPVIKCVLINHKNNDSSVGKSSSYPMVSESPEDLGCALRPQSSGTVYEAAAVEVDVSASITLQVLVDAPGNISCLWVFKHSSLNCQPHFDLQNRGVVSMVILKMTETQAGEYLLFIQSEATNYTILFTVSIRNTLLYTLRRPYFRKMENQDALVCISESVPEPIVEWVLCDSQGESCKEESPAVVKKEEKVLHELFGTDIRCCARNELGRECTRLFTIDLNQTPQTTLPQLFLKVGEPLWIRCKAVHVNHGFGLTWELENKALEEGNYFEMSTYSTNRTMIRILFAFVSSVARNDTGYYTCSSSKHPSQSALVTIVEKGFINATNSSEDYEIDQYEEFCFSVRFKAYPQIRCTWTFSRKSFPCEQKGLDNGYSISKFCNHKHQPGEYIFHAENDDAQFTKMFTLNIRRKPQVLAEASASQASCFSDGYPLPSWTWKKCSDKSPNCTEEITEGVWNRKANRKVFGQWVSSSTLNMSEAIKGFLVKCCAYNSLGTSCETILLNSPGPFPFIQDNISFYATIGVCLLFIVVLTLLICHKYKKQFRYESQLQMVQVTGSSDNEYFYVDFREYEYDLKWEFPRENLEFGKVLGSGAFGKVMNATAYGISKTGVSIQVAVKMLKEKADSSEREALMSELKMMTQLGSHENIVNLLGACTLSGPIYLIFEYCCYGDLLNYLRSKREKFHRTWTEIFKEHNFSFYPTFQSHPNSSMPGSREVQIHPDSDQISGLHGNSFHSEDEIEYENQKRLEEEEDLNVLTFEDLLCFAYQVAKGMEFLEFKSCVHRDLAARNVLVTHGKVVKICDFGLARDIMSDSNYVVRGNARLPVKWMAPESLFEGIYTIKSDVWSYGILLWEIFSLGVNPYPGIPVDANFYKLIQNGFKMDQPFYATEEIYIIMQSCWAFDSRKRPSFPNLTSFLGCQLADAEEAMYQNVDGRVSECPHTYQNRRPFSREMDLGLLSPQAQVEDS
Summary of the method: as §1

[2] = system: MOLM14-FLT3-ITD(D835Y) acute myeloid leukemia cells; assay: AML efficacy study in mice engrafted with MOLM14-FLT3-ITD(D835Y); assay type: in vivo
Protocol: Female, NSG-SGM3 (NOD.Cg-Prkdc^scid Il2^tm1Wjl Tg(CMV-IL3, CSF2, KITLG)1Eav/MloySzJ) mice were intravascularly engrafted with MOLM14-FLT3-ITD(D835Y) acute myeloid leukemia cells. Injection of leukemia cells was performed on 3/21/2022. Mice were randomized and dosing began three weeks following engraftment. […] Mice experiencing clinical signs prior to scheduled end-date, including weight loss, lethargy, hunched posture, ruffled coat, or hind limb paralysis were humanely euthanized.
Bone marrow aspirates were performed when the initial vehicle control mice became clinical, 9 days following initiation of treatment. Aspirates were centrifuged, treated with RBC lysis buffer, resuspended in 250 μL PBS, and two cytospin chamber slides were loaded with 125 μL. Cytospins were used to create two cytology slides per mouse: one for Wright-Giemsa staining and the other for huCD45 immunocytochemistry, if needed. Cytology slides were graded according to the number of leukemic cells identified per 400× field as follows: 0, none; 1, 1-5 CD45+ cells; 2, 6-10 CD45+ cells; 3, 11-15 CD45+ cells; 4, 16-30 CD45+ cells; 5, >30 CD45+ cells.
At necropsy, sections of femur, tibia, vertebra, and sternum were evaluated for the presence of leukemic cells using H&E and CD45 immunohistochemistry, if needed. Grades for long bones, vertebrae, and sternum were recorded as follows: 0, no leukemic cells; 1, <1% of cells; 2, 1-10% of cells; 3, 10-50% of bone marrow; 4, >50% of bone marrow. Sums of the individual grades were taken for each mouse (range 0 to 12).
Leukemic burden was measured in NSGS mice xenografted with MOLM14 FLT3-ITD(D835Y) and quantified using bone marrow (BM) aspirates. An initial BM aspirate, accompanied by peripheral CBC evaluation (submandibular samples), was collected at the time that clinical signs first appeared in control mice to verify AML engraftment prior to the start of drug dosing. Cytospin chambers were used to create two cytology slides per bone marrow sample. Aspirate samples were of high quality for 85% of samples. A semi-quantitative grading system was applied to each bone marrow aspirate according to the number of leukemic cells identified per 400× field as follows:
• 1: 1-5 leukemic cells (per HPF) • 2: 6-10 leukemic cells • 3: 11-15 leukemic cells • 4: 16-30 leukemic cells • 5: >30 leukemic cells
All mice had evidence of leukemia within the bone marrow aspirate. Histopathology scores we re-taken for long bones (femur and tibia), vertebrae, and sternum as follows: 0, no leukemic cells; 1, <1% of cells; 2, 1-10% of cells; 3, 10-50% of bone marrow; 4, >50% of bone marrow. Scores were totaled (range: 0 to 12) and plotted by group at necropsy. […] To incorporate survival, the bone marrow grade was divided by the time on test (FIG. 10).

hERG = hERG (Homo sapiens, UniProt Q12809); assay: Window to the hERG IC50 at the dose studied (FIG. 9B); details: at the dose studied (30 mg/kg, mice)
Chain of hERG (Q12809 whole entry): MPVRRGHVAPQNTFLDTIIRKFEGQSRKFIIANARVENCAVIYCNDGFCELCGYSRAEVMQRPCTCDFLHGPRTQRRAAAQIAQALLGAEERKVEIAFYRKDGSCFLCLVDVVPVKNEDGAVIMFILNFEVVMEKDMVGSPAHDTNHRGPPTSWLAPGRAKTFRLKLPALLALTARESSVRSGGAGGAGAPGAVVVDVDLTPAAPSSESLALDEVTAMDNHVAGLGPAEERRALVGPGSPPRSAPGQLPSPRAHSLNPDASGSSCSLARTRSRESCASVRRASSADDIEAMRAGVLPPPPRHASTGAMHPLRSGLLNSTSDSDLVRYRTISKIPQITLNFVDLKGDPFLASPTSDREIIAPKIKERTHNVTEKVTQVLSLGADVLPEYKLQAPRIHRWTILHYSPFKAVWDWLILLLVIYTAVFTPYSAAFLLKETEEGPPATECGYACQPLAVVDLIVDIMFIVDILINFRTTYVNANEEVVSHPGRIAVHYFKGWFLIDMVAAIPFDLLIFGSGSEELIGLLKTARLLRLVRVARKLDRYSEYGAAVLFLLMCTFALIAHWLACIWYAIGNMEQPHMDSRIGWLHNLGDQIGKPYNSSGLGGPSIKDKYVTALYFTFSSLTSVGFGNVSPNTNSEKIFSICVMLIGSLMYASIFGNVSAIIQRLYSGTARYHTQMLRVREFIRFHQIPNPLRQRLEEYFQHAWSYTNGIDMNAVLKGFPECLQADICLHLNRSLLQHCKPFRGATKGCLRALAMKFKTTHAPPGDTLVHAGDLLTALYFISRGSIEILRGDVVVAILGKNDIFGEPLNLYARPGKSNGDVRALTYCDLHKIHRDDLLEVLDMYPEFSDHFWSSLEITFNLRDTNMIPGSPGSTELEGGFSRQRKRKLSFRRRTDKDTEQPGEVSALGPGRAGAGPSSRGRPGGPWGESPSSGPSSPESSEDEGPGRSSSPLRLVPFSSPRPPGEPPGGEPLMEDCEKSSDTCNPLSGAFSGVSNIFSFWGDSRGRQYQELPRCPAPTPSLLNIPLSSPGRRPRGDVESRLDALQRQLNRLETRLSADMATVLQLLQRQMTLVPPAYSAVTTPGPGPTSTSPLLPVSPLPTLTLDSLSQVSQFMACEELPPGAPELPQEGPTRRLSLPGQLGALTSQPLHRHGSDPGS

THP1 cells = assay: Combination drug screening, Cell Titer Glo, THP1 cells; details: FLT3 WT setting (THP1 cells), Cell Titer Glo, 48 hours;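 note: luminescence read out in 1536-well plates seeded with 500 THP1 cells per well, each drug spanning a 10-point concentration range in the combination matrix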
Excerpt: A smaller concentration indicates higher potency to synergize with Venetoclax. […] The numbers in each cell represent the % response (left) or the Delta Bliss score (right) at each given concentration combination.
A smaller concentration indicates higher potency to synergize with azacitidine. […] The numbers in each cell represent the % response (left) or the Delta Bliss score (right) at each given concentration combination.
(§2) This is a cell line that has the FLT3 ITD mutation but also the FLT3 D835Y kinase domain mutation. […] Excess HSA is a measure of synergy vs. additivity or antagonism, wherein a negative Excess HSA value is indicative of synergy.
Briefly, 10 nL of compounds were acoustically dispensed into 1536-well white polystyrene tissue culture-treated plates with an Echo 550 acoustic liquid handler (Labcyte). MOLM14 (D835Y) or THP1 cells were then added to compound-containing plates at a density of 500-cells/well in 5 μL of medium. A 10-point custom concentration range was used for all listed drugs. […] 48h post compound addition, 3 μL of Cell Titer Glo (Promega) were added to each well and plates were incubated at room temperature for 15 minutes with the stainless-steel lid in place. Luminescence readings were taken using a Viewlux imager (PerkinElmer) with a 2 second exposure time per plate.

MOLM14 (D835Y) cells = assay: Combination drug screening, Cell Titer Glo, MOLM14 (D835Y) cells; details: FLT3 mutant setting (ITD-D835Y cells), Cell Titer Glo, 48 hours;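 note: MOLM14 cells with FLT3 ITD plus D835Y, 500 per well in 1536-well plates, 10-point dose ranges, luminescent viability after 48 h, negative Excess HSA indicates synergy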
Protocol: Briefly, 10 nL of the compound shown below was acoustically dispensed into 1536-well white polystyrene tissue culture-treated plates with an Echo 550 acoustic liquid handler (Labcyte). Cells were then added to compound-containing plate at a density of 500-cells/well in 5 μL of medium. A 6-point or 10-point custom concentration range was used for all listed drugs. Plates were incubated for 48 hours at standard incubator conditions covered by a stainless steel gasketed lid to prevent evaporation. 48h post compound addition, 3 μL of Cell Titer Glo (Promega) were added to each well and plates were incubated at room temperature for 15 minutes with the stainless-steel lid in place. Luminescence readings were taken using a Viewlux imager (PerkinElmer) with a 2 second exposure time per plate.
A smaller concentration indicates higher potency to synergize with Venetoclax.
A smaller concentration indicates higher potency to synergize with azacitidine.
as §2

[3] = THP-1-Blue NF-κB cells stimulated with Pam3CSK4, 24 hours, read-out: NF-κB Pam3SCK4 IC50
[4] = THP-1-Blue NF-κB cells stimulated with hIL1B, 24 hours, read-out: NF-κB IL1B IC50

SMILES: Nc1ncn([C@@H]2O[C@H](CO)[C@@H](O)[C@H]2O)c(=O)n1 [Compound 5-azacitdine, 5-azacitdine, reference compound]
- benefit of a third agent added to Compound 106 with venetoclax (apoptosis) ([1]; 4.12 nM added to dose level 7 of Compound 106 with dose level 7 of venetoclax): little to no additional benefit

SMILES: COc1cc2ncc(-c3ccc(F)c(N[C@H]4CNC[C@@H]4F)n3)n2nc1C1CC1 [Compound 46a, 6-(6-cyclopropyl-7-methoxyimidazo[1,2-b]pyridazin-3-yl)-3-fluoro-N-((3S,4S)-4-fluoropyrrolidin-3-yl)pyridin-2-amine]
- IC50 (IRAK1): 12 nM
- IC50 (NF-κB; [3]): 59 nM
- IC50 (NF-κB; [4]): 72 nM
- IC50 (MOLM14 D835Y cells): 115 nM
- IC50 (IRAK4): < 0.5 nM
- IC50 (FLT3): < 0.5 nM

SMILES: COc1cc2ncc(-c3nc(N[C@H]4CNCC[C@@H]4F)ccc3F)n2nc1C1CC1 [Compound 47a, 6-(6-cyclopropyl-7-methoxyimidazo[1,2-b]pyridazin-3-yl)-5-fluoro-N-((3S,4S)-4-fluoropiperidin-3-yl)pyridin-2-amine]
- IC50 (IRAK1): 6 nM
- IC50 (NF-κB; [3]): 45 nM
- IC50 (NF-κB; [4]): 95 nM
- IC50 (MOLM14 D835Y cells): 4 nM
- IC50 (IRAK4): < 0.5 nM
- IC50 (FLT3): < 0.5 nM

SMILES: COc1cc2ncc(-c3nc(N[C@@H]4CCCNC4)c(F)cc3F)n2nc1C1CC1 [Compound 106, (R)-6-(6-cyclopropyl-7-methoxyimidazo[1,2-b]pyridazin-3-yl)-3,5-difluoro-N-(piperidin-3-yl)pyridin-2-amine]
- combination activity with venetoclax (apoptosis induction) ([1]; dose level 6: gilteritinib 25 nM or Compound 106 12 nM with venetoclax 25 nM): much stronger than any of the other drug combinations
- combination activity with venetoclax (apoptosis induction over 24 hours) ([1]; dose level 7: 4 nM of Compound 106 and 8 nM of venetoclax): high activity
- cells entering apoptosis, combination with venetoclax ([1]; dose level 7: 4 nM of Compound 106 and 8 nM of venetoclax, four hours): about half of the cells enter into apoptosis in four hours
- combination activity with venetoclax (apoptosis induction over 24 hours) ([1]; dose level 8: 1.37 nM of Compound 106 and 2.7 nM of venetoclax): high activity
- cells stimulated to apoptosis ([1]; single agent, 1.37 nM, 12 hours of coverage): about 30%
- time at which apoptosis starts, single agent ([1]; single agent, even at the lowest dose of 1.37 nM, Caspase-Glo 3/7): ≤ 12 h
- survival ([2]; 30 mg/kg orally once/day M-F, 90 days, NSG-SGM3 mice): Significant survival differences; also recorded: enhanced survival in mice compared to gilteritinib and CA-4948 (emavusertib); also recorded: improved survival compared to those treated with gilteritinib or emavusertib (CA-4948)
- plasma levels (Cmax and AUC) against comparators ([2]; 30 mg/kg, mice, FIG. 9B): not due to higher plasma levels vs. gilteritinib or emavusertib
- survival-adjusted leukemic burden (bone marrow grade divided by time on test) ([2]; 90 day study, 30 mg/kg): decreased scores compared to standard of care F02 (Gilteritinib); also recorded: superior in reducing survival-adjusted leukemic burden
- survival persisting after withdrawal of the compound ([2]; after 90 days of treatment at 30 mg/kg, study then ended): 7 days
- bone marrow grades (leukemic burden) at necropsy ([2]; sum of histopathology scores of long bones, vertebrae, sternum (range 0 to 12)): Decreased bone marrow grades
- window to the hERG IC50 (hERG): larger window to the hERG IC50 than does emavusertib (CA-4948)
- synergy with venetoclax or azacitidine (THP1 cells): considerably more potent as a synergistic agent than either Gilteritinib or emavusertib (CA-4948)
- synergy with venetoclax or azacitidine (MOLM14 (D835Y) cells): considerably more potent as a synergistic agent than either Gilteritinib or emavusertib (CA-4948)
